# Data as given in patent US12227485B2, “Compounds useful for the treatment of infection with Mannheimia haemolytica or Histophilus somni” (Intervet Inc., priority 2018, dated 2025).
# Columns and labels:
# Mannheimia haemolytica = assay: MIC by broth-microdilution method (CLSI VET01-A4), Mannheimia haemolytica strains; assay type: cell-based; details: for MIC MH 6357: Mannheimia haemolytica MH 6357 (M7/2), reference strain (cattle infection strain); for MIC MH 6374: Mannheimia haemolytica MH 6374 (ATCC 33396), reference strain; for MIC MH 10720: Mannheimia haemolytica MH 10720 (154); for MIC MH 10720 / MIC MH 12587 / MIC MH 13093: BRD field isolate; for MIC MH 12587: Mannheimia haemolytica MH 12587 (1071), macrolide-resistance: erm+, E+; for MIC MH 13093: Mannheimia haemolytica MH 13093 (XB0472-6014.1)
# Procedure: (§1) For example, representative compounds were tested against Mannheimia haemolytica and Pasteurella multocida, using the conventional broth-dilution assay.
# (§2) The Minimum inhibitory concentrations (MIC) of compounds according to the invention for a number of veterinary bacterial pathogens were determined by the broth-microdilution method according to CLSI document VET01-A4.
# (§3) Microdilution trays containing a doubling dilution series of the test compound were used for the tests. The MIC results were interpreted according to the CLSI documents VET01-S3. The lowest concentration of compound at which no visible growth (i.e. no turbidity) detected by the unaided eye was recorded as the MIC.
# Pasteurella multocida = assay: MIC by broth-microdilution method (CLSI VET01-A4), Pasteurella multocida strains; assay type: cell-based; details: for MIC PM 6267: Pasteurella multocida PM 6267 (P 2225 (L386)), reference strain (mouse infection strain); for MIC PM 6391: Pasteurella multocida PM 6391 (ATCC 43137), reference strain; for MIC PM 10775: Pasteurella multocida PM 10775 (080130003051); for MIC PM 10775 / MIC PM 12080: BRD field isolate; for MIC PM 12080: Pasteurella multocida PM 12080 (IV102277-0093)
# Procedure: as §1, §2, §3
SMILES,MIC MH 6357 (Mannheimia haemolytica),MIC MH 6374 (Mannheimia haemolytica),MIC MH 10720 (Mannheimia haemolytica),MIC MH 12587 (Mannheimia haemolytica),MIC MH 13093 (Mannheimia haemolytica),MIC PM 6267 (Pasteurella multocida),MIC PM 6391 (Pasteurella multocida),MIC PM 10775 (Pasteurella multocida),MIC PM 12080 (Pasteurella multocida)
C=CCNCc1ccc(C#Cc2ccc3c(N[C@H](C(=O)NO)[C@@H](C)O)ncnc3c2)cc1 [Compound 4],1.6 µM,3.1 µM,1.6 µM,6.3 µM,3.1 µM,0.2 µM,0.4 µM,≤0.1 µM,1.6 µM
COCCNCc1ccc(C#Cc2ccc3c(N[C@H](C(=O)NO)[C@@H](C)O)nsc3c2)cc1 [Compound 12],0.8 µM,0.8 µM,0.2 µM,3.1 µM,1.6 µM,≤0.1 µM,>100 µM,≤0.1 µM,0.8 µM
C=CCNCc1ccc(C#Cc2ccc3c(N[C@H](C(=O)NO)[C@@H](C)O)nsc3c2)cc1 [Compound 11],0.4 µM,0.4 µM,≤0.1 µM,1.6 µM,0.8 µM,≤0.1 µM,0.2 µM,≤0.1 µM,0.4 µM
C[C@@H](O)[C@H](Nc1nsc2cc(C#Cc3ccc(CN4CCOCC4)cc3)ccc12)C(=O)NO [Compound 13],3.1 µM,6.3 µM,1.6 µM,6.3 µM,3.1 µM,≤0.1 µM,100 µM,≤0.1 µM,1.6 µM
COCCNCc1ccc(C#Cc2ccc3c(NC(C(=O)NO)C(C)(C)N)ncnc3c2)cc1 (racemic) [Compound 18],25 µM,25 µM,6.3 µM,50 µM,25 µM,3.1 µM,6.3 µM,0.8 µM,12.5 µM
C[C@@H](O)[C@H](Nc1ncnc2cc(C#Cc3ccc(CNCC(F)(F)F)cc3)ccc12)C(=O)NO [Compound 6],0.8 µM,0.8 µM,0.4 µM,1.6 µM,0.8 µM,≤0.1 µM,≤0.1 µM,≤0.1 µM,0.4 µM
C[C@@H](O)[C@H](Nc1nsc2cc(C#Cc3ccc(CNCc4ccccc4)cc3)ccc12)C(=O)NO [Compound 14],0.8 µM,0.8 µM,≤0.1 µM,1.6 µM,0.8 µM,≤0.1 µM,100 µM,≤0.1 µM,0.2 µM
C[C@@H](O)[C@H](Nc1nsc2cc(C#Cc3ccc(CNC4CC4)cc3)ccc12)C(=O)NO [Compound 10],0.2 µM,0.4 µM,≤0.1 µM,0.8 µM,0.4 µM,≤0.1 µM,>100 µM,≤0.1 µM,≤0.1 µM
C[C@@H](O)[C@H](Nc1ncnc2cc(C#Cc3ccc(CNCc4ccccc4)cc3)ccc12)C(=O)NO [Compound 5],0.8 µM,0.8 µM,0.8 µM,3.1 µM,1.6 µM,≤0.1 µM,0.2 µM,≤0.1 µM,0.8 µM
COCCNCc1ccc(C#Cc2ccc3c(N[C@H](C(=O)NO)[C@@H](C)O)ncnc3c2)cc1 [Compound 3],6.3 µM,6.3 µM,6.3 µM,12.5 µM,6.3 µM,0.2 µM,0.4 µM,≤0.1 µM,3.1 µM
C[C@@H](O)[C@H](Nc1nsc2cc(C#Cc3ccc(CNCC(F)(F)F)cc3)ccc12)C(=O)NO [Compound 15],1.6 µM,1.6 µM,≤0.1 µM,3.1 µM,1.6 µM,≤0.1 µM,>100 µM,≤0.1 µM,0.4 µM
C[C@@H](O)[C@H](Nc1ncnc2cc(C#Cc3ccc(CN4CCOCC4)cc3)ccc12)C(=O)NO [Compound 1],1.6 µM,3.1 µM,0.2 µM,3.1 µM,3.1 µM,1.6 µM,0.2 µM,≤0.1 µM,≤0.1 µM
C[C@@H](O)[C@H](Nc1ncnc2cc(C#Cc3ccc(CNC4CC4)cc3)ccc12)C(=O)NO [Compound 2],0.8 µM,1.6 µM,≤0.1 µM,3.1 µM,3.1 µM,1.6 µM,0.2 µM,≤0.1 µM,≤0.1 µM
